Key:
Assay in all cases: GFP plasmid transfection with DOTMA/DOPE plus plant virus movement protein derived peptides (Example 2)
Format in all cases: cell-based
HeLa Cells = settings: 1-6 μL of transfection reagents
Description: (§1) Cells were plated to so that on the day of transfection the cells were 70% confluent in 96 well tissue culture plates. A DOMTA/DOPE Lipid solution (1:1 molar ratio) at 2 mg/mL in water were mixed with an equal volume of plant virus movement protein derived peptides that had the nucleic acid binding moiety RRRRRRRRRRRR (SEQ ID NO:109) or KKKKKKKKKKKKKKKK (SEQ ID NO: 102) covalently linked to the N-terminus, or C-terminus of each peptide during peptide synthesis. Peptides were at 2 mg/mL in water. The DOTMA/DOPE and the plant virus movement peptide solution the was diluted 1 to 1 (v/v) in water. DOMTA/DOPE/PEPTIDE solutions were added to 0.1 mL of a plasmid DNA solution (EF1Alpha eGFP plasmid) at 10 μg/mL in OptiMEM.
(§2) All solutions were at room temperature. A volume of 0.2 mL of a 10 μg/mL solution of DNA was aliquoted into each well of a non-tissue cultured treated plate. 1-6 μL of transfection reagents were added to DNA solutions respectively. The transfection reagent and DNA solution was mixed by pipetting up and down twice. Transfection complexes were formed for 10 minutes. After 10 minutes, 0.01 or 0.02 mL of the transfection complex was added to cells. HuVEC, HeLa, human adult keratinocytes, human primary adult fibroblast, and A549 cells all respectively received 0.01 mL of the transfection complex. Human skeletal muscle cells, mouse C2C12 cells, and Jurkat, cells received 0.02 mL of the transfection complex. Cells were incubated for 42 hours at 37° C. at 5% CO2. Plates were read on a fluorescent plate reader. Cells were also examined visually under a microscope to assess the extent of transfection (in terms of the percent of cells transfected) with a fluorescent microscope. Other modes of analysis, for example quantification with B-galactosidase or luciferase reports plasmids can also be used.

HuVec Cells = settings: 42 hours
Description: as §1, §2

[1] = test system: Human Primary Fibroblast Cells; settings: 42 hours
Description: as §1, §2

[2] = value column 1 of 6, head not given, 1 µL transfection reagent
[3] = value column 3 of 6, head not given, 3 µL transfection reagent
[4] = value column 4 of 6, head not given, 4 µL transfection reagent

In the case of “545 (KSVPNRTRTYIKLKRLRFKGAPYKAWRRRRRRRRRRRR) [compound 545]”, the “Relative Fluorescence of Transfection of Hela Cells” value (HeLa Cells; 2 µL transfection reagent) is reported as 28529, the “Relative Fluorescence of Transfection of Hela Cells” value (HeLa Cells; 5 µL transfection reagent) is reported as 13009 and the “Relative Fluorescence of Transfection of Hela Cells” value (HeLa Cells; [2]) is reported as 11056. The “Relative Fluorescence of Transfection of Hela Cells” value (HeLa Cells; [3]) was 28943, the “Relative Fluorescence of Transfection of Hela Cells” value (HeLa Cells; [4]) was 14693 and the “Relative Fluorescence of Transfection of HuVEC Cells” value (HuVec Cells; Transfection Agent 1 μl) was 26545 Rf. The “Relative Fluorescence of Transfection of HuVEC Cells” value (HuVec Cells; Transfection Agent 1.5 μl) was 36649 Rf, the “Relative Fluorescence of Transfection of HuVEC Cells” value (HuVec Cells; Transfection Agent 2 μl) was 46890 Rf and the “Relative Fluorescence of Transfection of HuVEC Cells” value (HuVec Cells; Transfection Agent 3 μl) was 34047 Rf. For the same substance, the “Relative Fluorescence of Transfection of HuVEC Cells” value (HuVec Cells; Transfection Agent 4 μl) was 30893 Rf, the “Relative Fluorescence of Transfection of HuVEC Cells” value (HuVec Cells; Transfection Agent 6 μl) was 27133 Rf and the “Relative Fluorescence of Transfection of Human Primary Fibroblast Cells” value ([1]; Transfection Agent 1 μl) was 34309 Rf. For the same substance, the “Relative Fluorescence of Transfection of Human Primary Fibroblast Cells” value ([1]; Transfection Agent 1.5 μl) was 48184 Rf, the “Relative Fluorescence of Transfection of Human Primary Fibroblast Cells” value ([1]; Transfection Agent 2 μl) was 37497 Rf and the “Relative Fluorescence of Transfection of Human Primary Fibroblast Cells” value ([1]; Transfection Agent 3 μl) was 29067 Rf. The “Relative Fluorescence of Transfection of Human Primary Fibroblast Cells” value ([1]; Transfection Agent 4 μl) was 28928 Rf and the “Relative Fluorescence of Transfection of Human Primary Fibroblast Cells” value ([1]; Transfection Agent 6 μl) was 29256 Rf.

For “543 (RRRRRRRRRRRRVDFSHVDYGKWERKPIRCASMSRLGLRG) [compound 543]”, the “Relative Fluorescence of Transfection of Hela Cells” value (HeLa Cells; 2 µL transfection reagent) was 42502, the “Relative Fluorescence of Transfection of Hela Cells” value (HeLa Cells; 5 µL transfection reagent) was 13793 and the “Relative Fluorescence of Transfection of Hela Cells” value (HeLa Cells; [2]) was 12174. The “Relative Fluorescence of Transfection of Hela Cells” value (HeLa Cells; [3]) was 38779, the “Relative Fluorescence of Transfection of Hela Cells” value (HeLa Cells; [4]) was 28451 and the “Relative Fluorescence of Transfection of HuVEC Cells” value (HuVec Cells; Transfection Agent 1 μl) was 26622 Rf. The “Relative Fluorescence of Transfection of HuVEC Cells” value (HuVec Cells; Transfection Agent 1.5 μl) was 36742 Rf, the “Relative Fluorescence of Transfection of HuVEC Cells” value (HuVec Cells; Transfection Agent 2 μl) was 42802 Rf and the “Relative Fluorescence of Transfection of HuVEC Cells” value (HuVec Cells; Transfection Agent 3 μl) was 40584 Rf. The “Relative Fluorescence of Transfection of HuVEC Cells” value (HuVec Cells; Transfection Agent 4 μl) was 32754 Rf, the “Relative Fluorescence of Transfection of HuVEC Cells” value (HuVec Cells; Transfection Agent 6 μl) was 25492 Rf and the “Relative Fluorescence of Transfection of Human Primary Fibroblast Cells” value ([1]; Transfection Agent 1 μl) was 30416 Rf. The “Relative Fluorescence of Transfection of Human Primary Fibroblast Cells” value ([1]; Transfection Agent 1.5 μl) was 45401 Rf, the “Relative Fluorescence of Transfection of Human Primary Fibroblast Cells” value ([1]; Transfection Agent 2 μl) was 39786 Rf and the “Relative Fluorescence of Transfection of Human Primary Fibroblast Cells” value ([1]; Transfection Agent 3 μl) was 33091 Rf. The “Relative Fluorescence of Transfection of Human Primary Fibroblast Cells” value ([1]; Transfection Agent 4 μl) was 28648 Rf and the “Relative Fluorescence of Transfection of Human Primary Fibroblast Cells” value ([1]; Transfection Agent 6 μl) was 28698 Rf.

In the case of “546 (RTGVKRSYGAARGDDRRRPNVVRRRRRRRRRRRR) [compound 546]”, the “Relative Fluorescence of Transfection of Hela Cells” value (HeLa Cells; 2 µL transfection reagent) is reported as 15022, the “Relative Fluorescence of Transfection of Hela Cells” value (HeLa Cells; 5 µL transfection reagent) is reported as 8117 and the “Relative Fluorescence of Transfection of Hela Cells” value (HeLa Cells; [2]) is reported as 15190. For the same substance, the “Relative Fluorescence of Transfection of Hela Cells” value (HeLa Cells; [3]) was 12772, the “Relative Fluorescence of Transfection of Hela Cells” value (HeLa Cells; [4]) was 11535 and the “Relative Fluorescence of Transfection of HuVEC Cells” value (HuVec Cells; Transfection Agent 1 μl) was 25990 Rf. For the same substance, the “Relative Fluorescence of Transfection of HuVEC Cells” value (HuVec Cells; Transfection Agent 1.5 μl) was 32762 Rf, the “Relative Fluorescence of Transfection of HuVEC Cells” value (HuVec Cells; Transfection Agent 2 μl) was 37899 Rf and the “Relative Fluorescence of Transfection of HuVEC Cells” value (HuVec Cells; Transfection Agent 3 μl) was 35528 Rf. The “Relative Fluorescence of Transfection of HuVEC Cells” value (HuVec Cells; Transfection Agent 4 μl) was 31614 Rf, the “Relative Fluorescence of Transfection of HuVEC Cells” value (HuVec Cells; Transfection Agent 6 μl) was 27690 Rf and the “Relative Fluorescence of Transfection of Human Primary Fibroblast Cells” value ([1]; Transfection Agent 1 μl) was 31980 Rf. The “Relative Fluorescence of Transfection of Human Primary Fibroblast Cells” value ([1]; Transfection Agent 1.5 μl) was 39259 Rf, the “Relative Fluorescence of Transfection of Human Primary Fibroblast Cells” value ([1]; Transfection Agent 2 μl) was 41747 Rf and the “Relative Fluorescence of Transfection of Human Primary Fibroblast Cells” value ([1]; Transfection Agent 3 μl) was 35020 Rf. The “Relative Fluorescence of Transfection of Human Primary Fibroblast Cells” value ([1]; Transfection Agent 4 μl) was 32220 Rf and the “Relative Fluorescence of Transfection of Human Primary Fibroblast Cells” value ([1]; Transfection Agent 6 μl) was 29476 Rf.
